The record followed here is patent publication US7534894B2, “Biphenyloxy-acids” (Wyeth, priority 2003, dated 2009).

As usually defined, the pIC50 is −log10 of the IC50, conventionally taken in molar units. The term inhibition denotes the drop in the measured response relative to a control, in per cent.

pIC50: −log10 of the molar value.

In experiment [1] the target is T1, recombinant human plasminogen activator inhibitor-1 (PAI-1) (Homo sapiens, UniProt P05121).
T1 construct: purchased Molecular Innovations, Royal Oak, Mich
Kind of experiment: Kinetic IC50: modification of the Primary Screen for the PAI-1 Inhibition. The format is biochemical. How it is done: (§1) Test compounds are dissolved in DMSO at a final concentration of 10 mM, then diluted 101× in physiologic buffer. The inhibitory assay is initiated by the addition of the test compound (1-100 μM final concentration, maximum DMSO concentration of 0.2%) in a pH 6.6 buffer containing 140 nM recombinant human plasminogen activator inhibitor-1 (PAI-1; Molecular Innovations, Royal Oak, Mich.). Following a 1 hour incubation at room temperature, 70 nM of recombinant human tissue plasminogen activator (tPA) is added, and the combination of the test compound, PAI-1 and tPA is incubated for an additional 30 minutes. Following the second incubation, Spectrozyme-tPA (American Diagnostica, Greenwich, Conn.), a chromogenic substrate for tPA, is added and absorbance read at 405 nm at 0 and 60 minutes. Relative PAI-1 inhibition is equal to the residual tPA activity in the presence of the test compound and PAI-1. Control treatments include the complete inhibition of tPA by PAI-1 at the molar ratio employed (2:1), and the absence of any effect of the test compound on tPA alone.

Experiment [2] has as its target T1, recombinant human plasminogen activator inhibitor-1 (PAI-1). The experiment can be described thus: Primary Screen for the PAI-1 Inhibition (residual tPA activity, chromogenic substrate Spectrozyme-tPA). Conditions: 140 nM PAI-1, 70 nM tPA, pH 6.6; for inhibition at 25 µM: 25 μM test compound; for inhibition at 100 µM: 100 μM test compound. In kind it is biochemical. How it is done:
as §1

T1 sequence (P05121 24-402): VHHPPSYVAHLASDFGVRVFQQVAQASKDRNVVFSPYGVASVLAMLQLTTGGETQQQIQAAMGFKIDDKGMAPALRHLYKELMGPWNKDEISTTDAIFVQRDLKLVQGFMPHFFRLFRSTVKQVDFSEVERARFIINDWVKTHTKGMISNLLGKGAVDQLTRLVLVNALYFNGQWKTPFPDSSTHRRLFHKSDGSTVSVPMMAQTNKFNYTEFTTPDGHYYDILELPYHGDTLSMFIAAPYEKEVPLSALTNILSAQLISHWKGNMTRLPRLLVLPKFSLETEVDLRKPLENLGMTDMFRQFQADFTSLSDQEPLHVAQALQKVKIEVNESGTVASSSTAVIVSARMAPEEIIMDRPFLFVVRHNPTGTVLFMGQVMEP

For `O=C(O)C(Cc1ccccc1)Oc1ccc(-c2ccc(NC(=O)C3(c4ccc(Cl)cc4)CC3)cc2)cc1` (stereo not drawn) [Compound 33, 2-{[4′-({[1-(4-chlorophenyl)cyclopropyl]carbonyl}amino)-1,1′-biphenyl-4-yl]oxy}-3-phenylpropanoic acid], in experiment [1], the pIC50 was 4.86. Also, in experiment [2], the inhibition at 25 µM came out at 22% and the inhibition at 100 µM turned out to be 79%.
For `Cc1nn(Cc2ccc(C(=O)Nc3ccc(-c4cccc(OC(Cc5ccccc5)C(=O)O)c4)cc3)o2)c(C)c1Br` (stereo not drawn) [Compound 44, 2-{[4′-({5-[(4-bromo-3,5-dimethyl-1H-pyrazol-1-yl)methyl]-2-furoyl}amino)-1,1′-biphenyl-3-yl]oxy}-3-phenylpropanoic acid] the same measures were 4.93, 17% and 52%.
For `CCCCc1oc2ccccc2c1C(=O)Nc1ccc(-c2ccc(OC(Cc3ccccc3)C(=O)O)cc2)cc1` (stereo not drawn) [Compound 49, 2-[(4′-{[(2-butyl-1-benzofuran-3-yl)carbonyl]amino}-1,1′-biphenyl-4-yl)oxy]-3-phenylpropanoic acid] the same measures were 5.06, 25% and 90%.
For `O=C(Nc1ccc(-c2ccc(OC(Cc3ccccc3)C(=O)O)cc2)cc1)c1ccc(Oc2ccccc2)cc1` (stereo not drawn) [Compound 45, 2-({4′-[(4-phenoxybenzoyl)amino]-1,1′-biphenyl-4-yl}oxy)-3-phenylpropanoic acid] the same measures were 4.94, 34% and 61%.
For `O=C(O)C(Cc1ccccc1)Oc1ccc(-c2ccc(NC(=O)C3(c4ccccc4)CC3)cc2)cc1` (stereo not drawn) [Compound 32, 3-phenyl-2-[(4′-{[(1-phenylcyclopropyl)carbonyl]amino}-1,1′-biphenyl-4-yl)oxy]Propanoic acid], in experiment [1], the pIC50 was 5.39. In experiment [2], the inhibition at 25 µM came to 15% and the inhibition at 100 µM was 78%.
Turning to `O=C(Nc1ccc(-c2ccc(OC(Cc3ccccc3)C(=O)O)cc2)cc1)c1ccc(-c2ccc(Cl)cc2)s1` (stereo not drawn) [Compound 46, 2-{[4′-({[5-(4-chlorophenyl)thien-2-yl]carbonyl}amino)-1,1′-biphenyl-4-yl]oxy}-3-phenylpropanoic acid], the pIC50 in experiment [1] is 5.27. Also, in experiment [2], the inhibition at 25 µM was determined as 36% and the inhibition at 100 µM came to 84%.
Regarding `O=C(O)C(Cc1ccccc1)Oc1cccc(-c2ccc(NC(=O)C3(c4ccccc4)CCCC3)cc2)c1` (stereo not drawn) [Compound 25, 3-phenyl-2-[(4′-{[(1-phenylcyclopentyl)carbonyl]amino}-1,1′-biphenyl-3-yl)oxy]propanoic acid], in experiment [1], the pIC50 is 4.39. For the same compound, in experiment [2], the inhibition at 25 µM was found to be 26% and the inhibition at 100 µM turned out to be 74%.
Regarding `O=C(Nc1ccc(-c2cccc(OC(Cc3ccccc3)C(=O)O)c2)cc1)c1cc(-c2ccccc2Cl)oc1C(F)(F)F` (stereo not drawn) [Compound 40, 2-[(4′-{[5-(2-chlorophenyl)-2-(trifluoromethyl)-3-furoyl]amino}-1,1′-biphenyl-3-yl)oxy]-3-phenylpropanoic acid], in experiment [1], the pIC50 was 4.99. In experiment [2], the inhibition at 25 µM is 31% and the inhibition at 100 µM was found to be 90%.
As for `O=C(O)C(Cc1ccccc1)Oc1ccc(-c2ccc(NC(=O)C3(c4ccc(Cl)cc4)CCC3)cc2)cc1` (stereo not drawn) [Compound 47, 2-{[4′-({[1-(4-chlorophenyl)cyclobutyl]carbonyl}amino)-1,1′-biphenyl-4-yl]oxy}-3-phenylpropanoic acid], in experiment [1], the pIC50 was 4.74. In addition, in experiment [2], the inhibition at 25 µM is 14% and the inhibition at 100 µM came to 83%.
For `O=C(Nc1ccc(-c2cccc(OC(Cc3ccccc3)C(=O)O)c2)cc1)c1cc(-c2ccc(C(F)(F)F)cc2)oc1C(F)(F)F` (stereo not drawn) [Compound 43, 3-phenyl-2-{[4′-({2-(trifluoromethyl)-5-[4-(trifluoromethyl)phenyl]-3-furoyl}amino)-1,1′-biphenyl-3-yl]oxy}propanoic acid], the negative-log IC50 (pIC50) in experiment [1] was 4.92. Besides, in experiment [2], the inhibition at 25 µM was determined as 26% and the inhibition at 100 µM is 88%.
Take `O=C(Nc1ccc(-c2ccc(OC(Cc3ccccc3)C(=O)O)cc2)cc1)c1cc(-c2ccc(C(F)(F)F)cc2)oc1C(F)(F)F` (stereo not drawn) [Compound 50, 3-phenyl-2-{[4′-({2-(trifluoromethyl)-5-[4-(trifluoromethyl)phenyl]-3-furoyl}amino)-1,1′-biphenyl-4-yl]oxy}propanoic acid]: in experiment [1], the pIC50 was 4.73. Moreover, in experiment [2], the inhibition at 25 µM amounted to 27% and the inhibition at 100 µM was 95%.
For `CCCCc1oc2ccccc2c1C(=O)Nc1ccc(-c2cccc(OC(Cc3ccccc3)C(=O)O)c2)cc1` (stereo not drawn) [Compound 41, 2-[(4′-{[(2-butyl-1-benzofuran-3-yl)carbonyl]amino}-1,1′-biphenyl-3-yl)oxy]-3-phenylpropanoic acid] the same measures were 5.04, 30% and 95%.
On the same counts, the results for `O=C(O)C(Cc1ccccc1)Oc1cccc(-c2ccc(NC(=O)C3(c4ccc(Cl)cc4)CC3)cc2)c1` (stereo not drawn) [Compound 29, 2-{[4′-({[1-(4-chlorophenyl)cyclopropyl]carbonyl}amino)-1,1′-biphenyl-3-yl]oxy}-3-phenylpropanoic acid] are 4.51, 31% and 83%.
For `O=C(Nc1ccc(-c2cccc(OC(Cc3ccccc3)C(=O)O)c2)cc1)c1cc2cc(OCc3ccccc3)ccc2[nH]1` (stereo not drawn) [Compound 28, 2-{[4′-({[5-(benzyloxy)-1H-indol-2-yl]carbonyl}amino)-1,1′-biphenyl-3-yl]oxy}-3-phenylpropanoic acid], the negative-log IC50 (pIC50) in experiment [1] is 5.13. In experiment [2], the inhibition at 25 µM was 27% and the inhibition at 100 µM came to 70%.
Consider `O=C(O)COc1ccc(-c2ccc(NC(=O)c3cc(-c4ccc(-c5ccccc5)cc4)oc3C(F)(F)F)cc2)cc1` [Compound 36, [(4′-{[5-(1,1′-biphenyl-4-yl)-2-(trifluoromethyl)-3-furoyl]amino}-1,1′-biphenyl-4-yl)oxy]acetic acid], for which the pIC50 in experiment [1] is 4.74. Also, in experiment [2], the inhibition at 25 µM is 29% and the inhibition at 100 µM is 75%.
On the same counts, the results for `O=C(Nc1ccc(-c2cccc(OC(Cc3ccccc3)C(=O)O)c2)cc1)c1cccc2c1-c1ccccc1C2` (stereo not drawn) [Compound 24, 2-({4′-[(9H-fluoren-4-ylcarbonyl)amino]-1,1′-biphenyl-3-yl}oxy)-3-phenylpropanoic acid] are 4.92, 36% and 51%.
On the same counts, the results for `O=C(Nc1ccc(-c2cccc(OC(Cc3ccccc3)C(=O)O)c2)cc1)c1cc(-c2ccc(-c3ccccc3)cc2)oc1C(F)(F)F` (stereo not drawn) [Compound 42, 2-[(4′-{[5-(1,1′-biphenyl-4-yl)-2-(trifluoromethyl)-3-furoyl]amino}-1,1′-biphenyl-3-yl)oxy]-3-phenylpropanoic acid] are 4.73, 35% and 57%.
Consider `O=C(Nc1ccc(-c2ccc(OC(Cc3ccccc3)C(=O)O)cc2)cc1)c1cc(-c2ccccc2Cl)oc1C(F)(F)F` (stereo not drawn) [Compound 48, 2-[(4′-{[5-(2-chlorophenyl)-2-(trifluoromethyl)-3-furoyl]amino}-1,1′-biphenyl-4-yl)oxy]-3-phenylpropanoic acid], for which, in experiment [1], the negative logarithm of the IC50 (pIC50) is 4.63. Besides, in experiment [2], the inhibition at 25 µM was 7% and the inhibition at 100 µM worked out at 78%.
Regarding `CCCc1c(C(=O)Nc2ccc(-c3cccc(OC(Cc4ccccc4)C(=O)O)c3)cc2)cnn1-c1ccc(Cl)cc1` (stereo not drawn) [Compound 27, 2-{[4′-({[1-(4-chlorophenyl)-5-propyl-1H-pyrazol-4-yl]carbonyl}amino)-1,1′-biphenyl-3-yl]oxy}-3-phenylpropanoic acid], the pIC50 in experiment [1] is 5.11. In addition, in experiment [2], the inhibition at 25 µM was 20% and the inhibition at 100 µM stood at 63%.
On the same counts, the results for `O=C(O)C(Cc1ccccc1)Oc1ccc(-c2ccc(NC(=O)C3(c4ccccc4)CCCC3)cc2)cc1` (stereo not drawn) [Compound 31, 3-phenyl-2-[(4′-{[(1-phenylcyclopentyl)carbonyl]amino}-1,1′-biphenyl-4-yl)oxy]Propanoic acid] are 4.51, 24% and 51%.
For `O=C(Nc1ccc(-c2cccc(OC(Cc3ccccc3)C(=O)O)c2)cc1)c1ccc(-c2ccc(Cl)cc2)s1` (stereo not drawn) [Compound 38, 2-{[4′-({[5-(4-chlorophenyl)thien-2-yl]carbonyl}amino)-1,1′-biphenyl-3-yl]oxy}-3-phenylpropanoic acid] the same measures were 4.41, 5% and 52%.
On the same counts, the results for `O=C(Nc1ccc(-c2cccc(OC(Cc3ccccc3)C(=O)O)c2)cc1)c1ccc(Oc2ccccc2)cc1` (stereo not drawn) [Compound 37, 2-({4′-[(4-phenoxybenzoyl)amino]-1,1′-biphenyl-3-yl}oxy)-3-phenylpropanoic acid] are 4.74, 13% and 65%.
